The test system of assay [1] is A549. Nature of the assay: Cytotoxicity against human A549 cells after 48 hrs by SRB assay. The settings on record: A549, 48 h. It counts as functional, cell-based. Background: Sulforhodamine B stains cellular protein and so reports cell mass.
The subject of assay [2] is SK-OV-3. Nature of the assay: Cytotoxicity against human SKOV3 cells after 48 hrs by SRB assay. It counts as functional, cell-based. The settings on record: SK-OV-3, 48 h.

Data on four compounds can be found in ChEMBL document CHEMBL1158719, “Cytotoxic xanthones from Cudrania tricuspidata” (J Nat Prod, 2005).

The term IC50 denotes the concentration needed to halve the response being measured. A higher IC50 goes with lower potency. For the compound `C=CC(C)(C)c1c(O)cc(O)c2c(=O)c3c(CC=C(C)C)c(O)c(O)cc3oc12` [CUDRATRICUSXANTHONE A], the IC50 in assay [1] was 5.93 µM; in assay [2], 7.09 µM.
The like results for `C=CC(C)(C)c1c(O)cc2oc3c(CC=C(C)C)c(O)c(O)cc3c(=O)c2c1O` [CUDRAXANTHONE L] were, in that order, 3.15 µM and 4.72 µM.
In the case of `C=CC(C)(C)c1c(O)c(CC=C(C)C)c2oc3cc(O)c(O)cc3c(=O)c2c1O` [MACLURAXANTHONE B], the IC50 in assay [1] was 2.88 µM; in assay [2], 4.24 µM.
On the same counts, the results for `CC(=O)O[C@H]1C(=O)[C@@]2(C)[C@H]([C@H](OC(=O)c3ccccc3)[C@]3(O)C[C@H](OC(=O)[C@H](O)[C@@H](NC(=O)c4ccccc4)c4ccccc4)C(C)=C1C3(C)C)[C@]1(OC(C)=O)CO[C@@H]1C[C@@H]2O` [PACLITAXEL] are 1.25 µM and 1.35 µM.
